One assay deals with T1, human GPR84 receptor (Homo sapiens, UniProt Q9NQS5).
T1 construct: host or cells: HEK293, transient transfection
The assay is described as follows: Gαi biosensor BRET assay in HEK293 cells (antagonism of ZQ-16). To be noted: for inhibition at 10 µM: HEK293, single concentration 10 μM (designated F); for IC50: HEK293 cells, antagonism of 200 nmol/L ZQ-16; for inhibition at 2 µM: HEK293, single concentration 2 μM (designated A); for inhibition at 25 µM: HEK293, single concentration 25 μM (designated I). The assay is classed as cell-based. A digest of the protocol: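 HEK293 cells transiently expressing human GPR84, Gαi2-Rluc8, GFP10-Gγ2 and Gβ1, in Tyrode's buffer pH 7.5. Compounds preincubated 5 min at 37° C, then 200 nmol/L ZQ-16 for 5 min at room temperature; coelenterazine 400A 5 μmol/L. BRET2 acceptor/donor ratio, background- and vehicle-corrected net BRET.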

Another assay concerns neutrophils. Briefly: Neutrophil migration assay (embelin as chemotactic agent, ATPlite readout). The format is cell-based. To be noted: for IC50: Neutrophil, human neutrophils, embelin as chemotactic agent, read-out: Human Neutrophil migration inhibition IC50; for Human Neutrophil migration inhibition - fold potency to Control Compound: normalized to GPR84 antagonist Control Compound (average IC50 131 nM). How it is done: Neutrophil migration assay. After isolation, neutrophils were resuspended in chemotaxis buffer (DMEM supplemented with 10 mM HEPES) at a concentration of 8.9×10^6 cells/ml. In a 96-well plate, 20 μl of compound solution in chemotaxis buffer is added to 180 μl of cell suspension. After incubation at 37° C. for 30 minutes, 75 μl of cell suspension is transferred in the upper chamber of a 5 μm pore size Corning HTS transwell. 235 μl of chemotaxis buffer containing the chemotactic agent (embelin) is added to the lower chamber of the transwell. After a 60-minute incubation time at 37° C. in 5%0 C02, the upper chamber of the transwell is removed and the plate is centrifuged at 1500 rpm for 6 minutes. Supermatant is removed and cells resuspended in 100 ul of PBS. ATP content was assessed using ATPlite Luminescence Assay System® according to manufacturer instructions (Perkin Elmer, Buckinghamshire, UK). Briefly, 50 μl of ATPlite buffer and 50 μl of lysis solution is added to the lower chamber of the Transwells. After incubation at room temperature, in the dark with constant agitation for 5 minutes, 150 μl of cell lysate is transferred in a 96 wells white plate and incubated for 10 minutes in the dark. Luminescence is read on a TECAN plate reader, Infinite M1000 (Tecan, Morrisville, NC).
The compound numbers correspond to the compound numbers in Table 1. […] Normalization of the results takes the donor's variation into account.

We go through twelve compounds from patent US12617777B2, “GPR84 antagonists and uses thereof” (Liminal BioSciences Limited, priority 2021, dated 2026).

Bounds are passed on as bounds.

T1 sequence (Q9NQS5 whole entry): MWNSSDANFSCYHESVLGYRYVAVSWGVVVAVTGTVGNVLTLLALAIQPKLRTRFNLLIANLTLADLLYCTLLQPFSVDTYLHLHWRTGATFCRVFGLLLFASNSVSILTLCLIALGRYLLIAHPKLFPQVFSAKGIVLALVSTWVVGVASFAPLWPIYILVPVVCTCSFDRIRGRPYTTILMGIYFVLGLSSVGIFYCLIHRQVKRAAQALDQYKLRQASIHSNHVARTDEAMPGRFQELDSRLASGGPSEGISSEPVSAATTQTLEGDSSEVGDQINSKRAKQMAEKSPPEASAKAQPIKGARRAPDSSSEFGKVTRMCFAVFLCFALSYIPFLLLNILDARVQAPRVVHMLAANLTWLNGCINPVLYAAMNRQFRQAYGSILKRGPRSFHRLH

Consider `Cc1cc(C#CCNc2ccccc2)ccc1-c1cn(C[C@H]2CCCCO2)nn1` [Compound I-166], for which, at human GPR84 receptor, the inhibition at 10 µM is > 75% and the IC50 was 0.3 to 1 µM. In addition, in the assay with neutrophils, the IC50 was ≤ 0.3 µM and the “Human Neutrophil migration inhibition - fold potency to Control Compound” value is given as “A (IC50 of >1.0-fold relative to Control Compound)”.

In the case of `CC(C)Oc1cc(C#CC2CC(F)(F)C2)cnc1-c1cn(CC2OCC(C)(C)CO2)nn1` [Compound I-650], at human GPR84 receptor, the inhibition at 2 µM is > 75% and the IC50 is 0.3 to 1 µM. Moreover, in the assay on neutrophils, the IC50 is ≤ 0.3 µM and the “Human Neutrophil migration inhibition - fold potency to Control Compound” value is recorded as “A (IC50 of >1.0-fold relative to Control Compound)”.

Consider `CCc1cc(C#CCO)ccc1-c1cn(CC2OCC(C)(C)CO2)nn1` [Compound I-620], for which, on human GPR84 receptor, the inhibition at 10 µM is > 75% and the IC50 was ≤ 0.3 µM. Besides, in the assay on neutrophils, the IC50 is ≤ 0.3 µM and the “Human Neutrophil migration inhibition - fold potency to Control Compound” value is given as “A (IC50 of >1.0-fold relative to Control Compound)”.

In the case of `CCc1cc(C#CCNC(=O)OC(C)(C)C)ccc1-c1cn(CC2CCCCO2)nn1` (centres unmarked) [Compound I-572], on human GPR84 receptor, the inhibition at 10 µM is > 75% and the IC50 is 0.3 to 1 µM. For the same compound, in the assay on neutrophils, the IC50 was ≤ 0.3 µM and the “Human Neutrophil migration inhibition - fold potency to Control Compound” value is given as “A (IC50 of >1.0-fold relative to Control Compound)”.

As for `Cc1ccc(C#CC2CC2)cc1-c1nnn(CC2CCCCO2)n1` (centres unmarked) [Compound I-7], on human GPR84 receptor, the inhibition at 25 µM was > 75% and the IC50 is > 3 µM. Also, in the assay with neutrophils, the IC50 is > 3 µM and the “Human Neutrophil migration inhibition - fold potency to Control Compound” value is “C (IC50≤0.5-fold relative to Control Compound)”.

On to `Cc1cc(C#CC2CC2)cnc1-c1cn(CC2CCCCO2)cn1` (centres unmarked) [Compound I-424], for which, at human GPR84 receptor, the inhibition at 10 µM was > 75% and the IC50 lay in the range of 1 to 3 µM. In the assay with neutrophils, the IC50 is ≤ 0.3 µM and the “Human Neutrophil migration inhibition - fold potency to Control Compound” value was “A (IC50 of >1.0-fold relative to Control Compound)”.

Take `CC(C)Oc1cc(C#CCN2CC(C)(C)C2)ccc1-c1cn(C[C@H]2CCCCO2)nn1` [Compound I-413]: on human GPR84 receptor, the inhibition at 2 µM is > 75% and the IC50 lay within 0.3 to 1 µM. Further, in the assay on neutrophils, the IC50 was ≤ 0.3 µM and the “Human Neutrophil migration inhibition - fold potency to Control Compound” value is “B (IC50 of >0.5-≤1.0-fold relative to Control Compound)”.

On to `Cc1cc(C#CC(C)C)ccc1-c1cn(CC2CCCCO2)nn1` (centres unmarked) [Compound I-66], for which the IC50 on human GPR84 receptor is > 3 µM. In addition, in the assay with neutrophils, the IC50 is 1 to 3 µM and the “Human Neutrophil migration inhibition - fold potency to Control Compound” value was “C (IC50≤0.5-fold relative to Control Compound)”.

In the case of `CN(C)c1cc(N2CC(C)(C)C2)ccc1-c1cn(CC2OCC(C)(C)CO2)nn1` [Compound I-585], on human GPR84 receptor, the inhibition at 10 µM is > 75% and the IC50 was ≤ 0.3 µM. In the assay on neutrophils, the IC50 was ≤ 0.3 µM and the “Human Neutrophil migration inhibition - fold potency to Control Compound” value is on record as “A (IC50 of >1.0-fold relative to Control Compound)”.

Regarding `Cc1ccc(C#CC2CC2)cc1-c1cn(CC2CCCCO2)nn1` (centres unmarked) [Compound I-65], on human GPR84 receptor, the inhibition at 25 µM is > 75% and the IC50 was in the range of 1 to 3 µM. Moreover, in the assay on neutrophils, the IC50 lay within 1 to 3 µM and the “Human Neutrophil migration inhibition - fold potency to Control Compound” value is “C (IC50≤0.5-fold relative to Control Compound)”.

On to `Cc1cc(C#CC2CC2)cnc1-c1cn(C[C@H]2CCCCO2)nn1` [Compound I-245], for which, on human GPR84 receptor, the inhibition at 10 µM was > 75% and the IC50 is 1 to 3 µM. In addition, in the assay with neutrophils, the IC50 was in the range of 0.3 to 1 µM and the “Human Neutrophil migration inhibition - fold potency to Control Compound” value is given as “C (IC50≤0.5-fold relative to Control Compound)”.

As to `Cc1cc(C#CC(C)(C)O)ccc1-c1cn(CC2CCCCO2)nn1` (centres unmarked) [Compound I-79], on human GPR84 receptor (HEK293, single concentration 15 μM (designated H)), the inhibition at 15 µM is > 75%. Further, the IC50 on human GPR84 receptor was > 3 µM. Moreover, in the assay on neutrophils, the IC50 fell in the range of 0.3 to 1 µM and the “Human Neutrophil migration inhibition - fold potency to Control Compound” value was “C (IC50≤0.5-fold relative to Control Compound)”.
